Literature values, collected in publication PMC10892719 (Pharmaceutics, 2024).

Target: T1, Aβ1-42 (Homo sapiens, UniProt P05067)
T1 construct: purchased Genecust, Boynes, France
Settings: thioflavin T fluorescence method; cited from earlier work

T1 sequence (P05067 672-713 limits assumed): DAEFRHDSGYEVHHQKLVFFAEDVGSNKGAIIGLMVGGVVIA

SMILES: COc1cc(/C=C/C(=O)CC(=O)/C=C/c2ccc(O)c(OC)c2)ccc1O [Curcumin, curcumin]
- Aβ42 Self-Aggreg. Inhib: 65.7%
